Experimental data published in PubChem BioAssay (NCI).
Values joined by “and” are separate entries in the source; they are usually repeats but may differ in a detail not shown here. Identical values can stand only once.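 These data come from cells grown in 96-well plates and exposed to compound for 48 hours at five concentrations. Here, GI50 denotes the concentration required for 50% inhibition of growth. TGI denotes the concentration required for complete inhibition of growth.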

How the values were obtained:
Test in all cases: DTP human tumour cell line panel, 48 h
A498 renal = system: A498 renal
HOP-92 NSCLC = system: HOP-92 NSCLC
IGROV1 ovarian = system: IGROV1 ovarian
K-562 leukemia = system: K-562 leukemia
KM12 colon = system: KM12 colon
OVCAR-5 ovarian = system: OVCAR-5 ovarian
SW-620 colon = system: SW-620 colon
UO-31 renal = system: UO-31 renal
MCF7 breast = system: MCF7 breast
MDA-MB-231 breast = system: MDA-MB-231 breast

NC(=O)N1N=C2c3ccccc3OC[C@H]2[C@@H]1c1ccccc1
TGI (A498 renal): > 81.5 µM | TGI (HOP-92 NSCLC): > 100 µM | TGI (IGROV1 ovarian): > 100 µM | TGI (K-562 leukemia): > 100 µM | TGI (KM12 colon): 16.6 µM | TGI (OVCAR-5 ovarian): 72.1 µM | TGI (SW-620 colon): > 100 µM | TGI (UO-31 renal): > 100 µM

COc1cc2ccc(CC(=O)O)cc2cc1OC
TGI (A498 renal): > 100 µM | TGI (IGROV1 ovarian): > 100 µM | TGI (K-562 leukemia): > 100 µM | TGI (KM12 colon): > 100 µM | TGI (SW-620 colon): > 100 µM | TGI (UO-31 renal): > 100 µM

O=C(O)c1cc2ccc(Cl)cc2c(O)c1C1=CCCCC1
TGI (A498 renal): 79.1 µM | TGI (HOP-92 NSCLC): 85.9 µM | TGI (IGROV1 ovarian): > 100 µM | TGI (K-562 leukemia): > 100 µM | TGI (KM12 colon): > 100 µM | TGI (OVCAR-5 ovarian): > 100 µM | TGI (SW-620 colon): > 100 µM | TGI (UO-31 renal): > 100 µM

COc1ccc2cc1Oc1ccc(cc1)CC1c3c(cc(OC)c4c3Oc3cc5c(cc3O4)CCNC5C2)CCN1C (stereo not drawn)
GI50 (A498 renal): 1.64 µM | TGI (A498 renal): 3.7 µM and 3.02 µM | TGI (HOP-92 NSCLC): 6.76 µM | GI50 (IGROV1 ovarian): 1.47 µM | TGI (IGROV1 ovarian): 3.41 µM and 2.82 µM | GI50 (KM12 colon): 1.46 µM | TGI (KM12 colon): 3.33 µM and 2.85 µM | TGI (MCF7 breast): 3.38 µM | GI50 (MDA-MB-231 breast): 1.73 µM | TGI (MDA-MB-231 breast): 3.35 µM | GI50 (OVCAR-5 ovarian): 1.98 µM | TGI (OVCAR-5 ovarian): 15.1 µM and 3.46 µM | GI50 (UO-31 renal): 1.67 µM | TGI (UO-31 renal): 30.7 µM and 3.13 µM

Cc1cc(=O)[nH]c2c1C(=O)c1c(C)cc(=O)n(C)c1C2=O
TGI (A498 renal): 0.36 µM | TGI (IGROV1 ovarian): 0.437 µM | TGI (K-562 leukemia): > 10 µM | TGI (KM12 colon): 0.192 µM | TGI (MCF7 breast): 0.0356 µM | TGI (MDA-MB-231 breast): 0.789 µM | TGI (OVCAR-5 ovarian): 0.31 µM | TGI (SW-620 colon): 0.179 µM | TGI (UO-31 renal): 0.318 µM

Cc1ncc([N+](=O)[O-])n1CCOc1ccc(C(=O)/C=C/c2ccc(C(F)(F)F)cc2)cc1
GI50 (A498 renal): 6.57 µM | TGI (A498 renal): 20.2 µM | GI50 (IGROV1 ovarian): 2 µM | TGI (IGROV1 ovarian): 4.13 µM | GI50 (K-562 leukemia): 1.53 µM | TGI (K-562 leukemia): 3.83 µM | GI50 (KM12 colon): 2.01 µM | TGI (KM12 colon): 4.22 µM | GI50 (MCF7 breast): 1.7 µM | TGI (MCF7 breast): 4.01 µM | GI50 (MDA-MB-231 breast): 3.53 µM | TGI (MDA-MB-231 breast): 15.5 µM | GI50 (OVCAR-5 ovarian): 2.93 µM | TGI (OVCAR-5 ovarian): 14.4 µM | GI50 (SW-620 colon): 1.76 µM | TGI (SW-620 colon): 4.03 µM | GI50 (UO-31 renal): 1.48 µM | TGI (UO-31 renal): 2.87 µM

COc1ccc(C2C(C(=O)O)=C(COC(C)=O)Oc3cc4c(cc32)OCO4)c(OC)c1 (stereo not drawn)
TGI (HOP-92 NSCLC): > 100 µM | TGI (IGROV1 ovarian): > 100 µM | TGI (K-562 leukemia): > 100 µM | TGI (SW-620 colon): > 100 µM | TGI (UO-31 renal): > 100 µM

Clc1ccc(/C=C/c2csnn2)cc1
TGI (A498 renal): > 100 µM | TGI (HOP-92 NSCLC): > 100 µM | TGI (IGROV1 ovarian): > 100 µM | TGI (K-562 leukemia): > 100 µM | TGI (KM12 colon): > 100 µM | TGI (OVCAR-5 ovarian): > 100 µM | TGI (SW-620 colon): > 100 µM | TGI (UO-31 renal): > 100 µM

Cc1cccc(NC(=O)CSc2nnc(-c3ccc(N=Cc4ccc(Cl)cc4)cc3)o2)c1
TGI (K-562 leukemia): > 100 µM | TGI (KM12 colon): > 100 µM | TGI (SW-620 colon): > 100 µM | TGI (UO-31 renal): > 100 µM

Nc1cccc(C(=O)/C=C/c2ccccc2O)c1
TGI (A498 renal): > 100 µM | TGI (HOP-92 NSCLC): > 100 µM | TGI (IGROV1 ovarian): > 100 µM | TGI (K-562 leukemia): > 100 µM | TGI (KM12 colon): > 100 µM | TGI (OVCAR-5 ovarian): > 100 µM | TGI (SW-620 colon): 29.6 µM | TGI (UO-31 renal): > 100 µM

CC1(C)O[C@@H](CCl)C[C@@H](C#N)O1
TGI (A498 renal): > 100 µM | TGI (HOP-92 NSCLC): > 100 µM | TGI (IGROV1 ovarian): > 100 µM | TGI (K-562 leukemia): > 100 µM | TGI (KM12 colon): > 100 µM | TGI (OVCAR-5 ovarian): > 100 µM | TGI (SW-620 colon): > 100 µM | TGI (UO-31 renal): > 100 µM

NC(=O)C1C(=O)Oc2cccnc21 (stereo not drawn)
TGI (IGROV1 ovarian): > 100 µM | TGI (K-562 leukemia): > 100 µM | TGI (KM12 colon): > 100 µM | TGI (SW-620 colon): > 100 µM | TGI (UO-31 renal): > 100 µM

COc1cc(/C=C/C(=O)/C=C/c2ccc(-n3ccnc3)cc2)ccc1O
GI50 (A498 renal): 7.22 µM | TGI (A498 renal): 19.9 µM | GI50 (HOP-92 NSCLC): 10.5 µM | TGI (HOP-92 NSCLC): 27.1 µM | GI50 (K-562 leukemia): 3.18 µM | TGI (K-562 leukemia): > 100 µM | GI50 (KM12 colon): 2.11 µM | TGI (KM12 colon): 4.59 µM | GI50 (MCF7 breast): 0.827 µM | TGI (MCF7 breast): 6.21 µM | GI50 (MDA-MB-231 breast): 3.47 µM | TGI (MDA-MB-231 breast): 13 µM | GI50 (OVCAR-5 ovarian): 16.6 µM | TGI (OVCAR-5 ovarian): 33.9 µM | GI50 (SW-620 colon): 2.34 µM | TGI (SW-620 colon): 5.78 µM | GI50 (UO-31 renal): 1.51 µM | TGI (UO-31 renal): 3.15 µM

Cc1cn([C@H]2CN(O)C[C@@H](CO)O2)c(=O)[nH]c1=O
TGI (A498 renal): > 100 µM | TGI (IGROV1 ovarian): > 100 µM | TGI (K-562 leukemia): > 100 µM | TGI (KM12 colon): > 100 µM | TGI (MCF7 breast): > 100 µM | TGI (MDA-MB-231 breast): > 100 µM | TGI (OVCAR-5 ovarian): > 100 µM | TGI (SW-620 colon): > 100 µM | TGI (UO-31 renal): > 100 µM

CN(C)CN(C)c1nc(N(C)C)nc(N(C)C)n1
TGI (A498 renal): > 100 µM | TGI (HOP-92 NSCLC): > 100 µM | TGI (IGROV1 ovarian): > 100 µM | TGI (K-562 leukemia): > 100 µM | TGI (KM12 colon): > 100 µM | TGI (OVCAR-5 ovarian): > 100 µM | TGI (SW-620 colon): > 100 µM | TGI (UO-31 renal): > 100 µM

O=C(Cn1ccnc1[N+](=O)[O-])NCc1ccc(F)cc1
TGI (A498 renal): > 100 µM | TGI (HOP-92 NSCLC): > 100 µM | TGI (IGROV1 ovarian): > 100 µM | TGI (K-562 leukemia): > 100 µM | TGI (KM12 colon): > 100 µM | TGI (OVCAR-5 ovarian): > 100 µM | TGI (SW-620 colon): > 100 µM | TGI (UO-31 renal): > 100 µM

CC(=O)Nc1ccc2c(c1)[nH]c(=O)c1cc(Cl)ccc12
TGI (A498 renal): > 100 µM | TGI (IGROV1 ovarian): > 100 µM | TGI (K-562 leukemia): > 100 µM | TGI (KM12 colon): > 100 µM | TGI (MCF7 breast): 77.7 µM | TGI (MDA-MB-231 breast): > 100 µM | TGI (OVCAR-5 ovarian): > 100 µM | TGI (SW-620 colon): > 100 µM | TGI (UO-31 renal): > 100 µM

CCOc1ccccc1NC(=O)C1=C(C)NC(C)=C(C(=O)Nc2ccccc2OCC)C1c1ccc2c(c1)OCO2
TGI (A498 renal): 84 µM | TGI (HOP-92 NSCLC): 56 µM | TGI (IGROV1 ovarian): > 100 µM | TGI (K-562 leukemia): 70.3 µM | TGI (KM12 colon): 50.7 µM | TGI (OVCAR-5 ovarian): > 100 µM | TGI (SW-620 colon): > 100 µM | TGI (UO-31 renal): > 100 µM

N#CC(C#N)=C/C=C/c1ccccc1[N+](=O)[O-]
TGI (A498 renal): > 10 µM | TGI (HOP-92 NSCLC): > 10 µM | TGI (IGROV1 ovarian): > 10 µM | TGI (K-562 leukemia): > 10 µM | TGI (KM12 colon): > 10 µM | TGI (MCF7 breast): > 10 µM | TGI (MDA-MB-231 breast): 7.01 µM | TGI (SW-620 colon): > 10 µM | TGI (UO-31 renal): > 10 µM

Cc1cc2nc3c(C(OC4OC(CO)C(O)C(O)C4O)C(O)CO)nn(-c4ccc(F)cc4)c3nc2cc1C (stereo not drawn)
TGI (A498 renal): > 100 µM | TGI (K-562 leukemia): > 100 µM | TGI (KM12 colon): > 100 µM | TGI (OVCAR-5 ovarian): > 100 µM | TGI (UO-31 renal): > 100 µM

CN(C)CCC(/C=C/c1ccccc1)=N\Nc1c(F)c(F)c(F)c(F)c1F
TGI (A498 renal): > 100 µM | TGI (IGROV1 ovarian): > 100 µM | TGI (K-562 leukemia): > 100 µM | TGI (KM12 colon): > 100 µM | TGI (OVCAR-5 ovarian): > 100 µM | TGI (SW-620 colon): > 100 µM | TGI (UO-31 renal): > 100 µM

O=C(N[C@H]1CC2(C=C(I)C(=O)C(I)=C2)OC1=O)OCc1ccccc1
TGI (A498 renal): > 100 µM | TGI (K-562 leukemia): 33.5 µM | TGI (KM12 colon): 29.5 µM | TGI (OVCAR-5 ovarian): 33.2 µM | TGI (UO-31 renal): 32.1 µM

COc1ccc(S(=O)(=O)NNS(C)(=O)=O)cc1OC
TGI (A498 renal): > 100 µM | TGI (IGROV1 ovarian): > 100 µM | TGI (K-562 leukemia): > 100 µM | TGI (KM12 colon): > 100 µM | TGI (SW-620 colon): > 100 µM | TGI (UO-31 renal): > 100 µM
